These results are taken from the NIST ThermoML archive (doi:10.1021/acs.jced.6b00279).

For the series the following is noted: Crystal; visual observation.

Structures are written as SMILES. Numbers after ± are expanded uncertainties.

For the compound `CCCC[n+]1ccccc1.[Br-]` [1-butylpyridinium bromide], the Normal melting temperature stood at 105.00 ± 2 °C.
